Data published in patent publication US11130743B2, “Heterocyclic ligands of PAR1 and methods of use” (Marquette University, priority 2019, dated 2021).
In brackets after ≈: the same amount, converted by molar mass. Values belong to the compound of their own block, whether it stands above or below them.

Columns and labels:
[1] = biological target: T1, peripheral benzodiazepine receptor (PBR) (Rattus norvegicus, UniProt P16257); assay: PDSP off-target radioligand binding, PBR; settings: PDSP profiling
T1 construct: Psychoactive Drug Screening Program (PDSP)

[2] = stability in human liver microsomes; type: in vitro ADME; settings: 1 h
human washed platelets = assay: human platelet aggregation assay with PAR1/2 agonist SFLLRN-NH2; type: cell-based; settings: parmodulins at 10 μM, SFLLRN-NH2 (5 μM)
Procedure: FIGS. 5A-5B depicts results of a human platelet aggregation assay of A) ML161 (10 μM, red trace) and B) NRD-21 (10 μM, red trace) in the presence of the PAR1/2 agonist SFLLRN-NH2 ([…]). Blue traces=DMSO.
Next, an assay was performed to measure the ability of NRD-21 to inhibit platelet aggregation. PAR1 is highly expressed in platelets, and its activation leads to aggregation and coagulation. The platelet aggregation assay was performed with ML161 and NRD-21. In both cases, human washed platelets were incubated with parmodulins at 10 μM, then the PAR1/2 agonist SFLLRN-NH2 (5 μM) was added. (FIG. 5).

mouse plasma stability = type: in vitro ADME; settings: after 4 h in mouse plasma
Procedure: The term “plasma stability” as used herein refers to the ability of the compound to remain intact after incubation with plasma, for example, mouse plasma or human plasma, after a certain period of time. For example, the compounds of the present invention (e.g., compounds of formula I) have a greater half-life for plasma stability than prior compounds (for example, greater half-life stability than ML161). Methods of determining the plasma stability of the compounds are known in the art. For example, one can measure the amount of compound remaining by HPLC after a 4 h incubation in plasma, or if multiple time points are taken, a half-life for plasma stability can be calculated. As described in the Examples and Table 5, the % compound remaining after 4 h-incubation in mouse plasma is substantially better than the compounds of the prior art (e.g., ML161). For example, increased plasma stability can be at least 20% of the compound remains after 4 hour incubation in plasma, alternatively at least 30% of the compound remains after 4 hour incubation in plasma.
We measured its stability and a number of parameters relevant to its use as an in vivo probe (Table 5, FIG. 7). Importantly, NRD-21 is much more plasma stable than ML161. After 4 h in mouse plasma, 32% of NRD-21 remained, while ML161 was less than 1%.

human plasma stability = type: in vitro ADME; settings: after 4 h in human plasma
From the text: FIG. 8. Human plasma stability of ML161 (left) and NRD-21 (right). Points indicate the natural logarithm of the average concentration of compound remaining, with 3 replicates at each time point.

[3] = biological target: T2, serotonin transporter (SERT) (Homo sapiens, UniProt P31645); assay: PDSP off-target radioligand binding, SERT
T2 construct: Psychoactive Drug Screening Program (PDSP)

[4] = tested on: tissue factor (TF) expression; assay: qPCR assay of TNF-α induced tissue factor (TF) expression in HUVEC; type: cell-based, human; settings: 10 μM inhibitor, TNF-α 25 ng/mL, mRNA at 4 h
Procedure: FIG. 6 is a graph depicting results of a qPCR assay (n=3) measuring the inhibition of TNF-α (25 ng/mL) induced tissue factor (TF) expression in HUVEC after treatment with ML161 and NRD-21 (10 μM). Inhibitors were added at t=0, TNF-α was added at t=1 h, and mRNA was measured at t=4 h.
To this end, we performed a qPCR assay measuring the expression of tissue factor (TF) in endothelial cells (HUVEC) in response to the inflammatory cytokine Tumor Necrosis Factor-alpha (TNF-α). TF has been long established to mediate the pro-inflammatory and pro-coagulant effects^27 of TNF-α^28,29 and endotoxins,^30 and unnatural TF expression is therefore the driver of disseminated intravascular coagulation (DIC) observed under conditions of cancer or sepsis.^31 We measured the level of TF mRNA 4 h after treatment with ML161 or NRD-21 followed by the addition of TNF-α (FIG. 6).

PAR1 [5] = biological target: T3, PAR1 (Homo sapiens, UniProt P25116); assay: PAR1 (TFLLRN-NH2)-driven intracellular calcium mobilization (iCa2+) assay with Ea.hy926 cells; type: cell-based; settings: for iCa2+ assay pIC50 / IC50: 5 μM TFLLRN-NH2, EA.hy926 cells, curves fitted to 3 wells per concentration; for inhibition at 10 µM: EA.hy 926, 10 μM compound, 5 μM TFLLRN-NH2, adherent EA.hy926 endothelial cells, n=4 wells, ± SEM, read-out: iCa2+ assay % Inhib; for IC50: read-out: iCa2+ assay pIC50 (converted)
T3 construct: endogenous in cells; host or cells: EA.hy926 endothelial cells
T3 sequence (P25116 22-425): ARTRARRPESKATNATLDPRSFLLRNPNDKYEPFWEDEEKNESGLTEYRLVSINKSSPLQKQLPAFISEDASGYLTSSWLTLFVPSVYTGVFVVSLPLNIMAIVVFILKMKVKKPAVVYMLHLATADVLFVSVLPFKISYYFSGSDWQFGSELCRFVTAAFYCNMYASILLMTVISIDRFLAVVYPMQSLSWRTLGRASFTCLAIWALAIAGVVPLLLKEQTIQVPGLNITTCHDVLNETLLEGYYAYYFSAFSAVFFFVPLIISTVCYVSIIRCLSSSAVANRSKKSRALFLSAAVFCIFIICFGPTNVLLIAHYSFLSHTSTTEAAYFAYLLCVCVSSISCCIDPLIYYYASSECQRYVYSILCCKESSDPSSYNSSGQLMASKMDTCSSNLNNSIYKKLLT
Procedure: FIGS. 1A-1D depicts concentration-response curves for PAR1 antagonists in the TFLLRN-NH2-mediated (5 μM) intracellular calcium mobilization (iCa^2+) assay with Ea.hy926 cells: A) 35 (VAK-7), B) 39 (NRD-23), C) 9 (NRD-25), D) 38 (NRD-21). Cells were loaded with the calcium-binding dye Fluo-4/AM, and changes in calcium concentration were measured with a plate reader.
Our interest in measuring the effects of parmodulins in endothelial cells led us to develop a protocol for an […] calcium mobilization (iCa^2+) assay using adherent Ea.hy926 cells in 96 well plates.^24 This assay also offers higher throughput and lower variability than the platelet P-selectin assay, so we have utilized it as our primary assay for our ongoing studies. Compounds were screened in 96 well plates at a concentration of 10 μM, using the PAR1 tethered ligand peptide TFLLRN (5 μM) as agonist.
The intracellular calcium mobilization assay was performed with Ea.hy926 cells according to our published protocol (Bioorg. Med. Chem. 2018, 9, 2514-2529), using TFLLRN-NH2 as PAR1 agonist.
^aAssays were performed with adherent EA.hy926 endothelial cells. % Inhibition was measured at 10 μM with 5 μM TFLLRN-NH2 and n=4 wells, unless otherwise noted, with standard error of the mean (SEM) provided. pIC50s (-logIC50S) were estimated from curves fitted to measurements on 3 separate wells for each concentration, using 4-variable non-linear regression in GraphPad Prism v.6.

[6] = kinetic aqueous solubility assay; type: physicochemical; settings: aqueous solution with 2.5% DMSO
hepG2 = assay: toxicity in a human cell line (hepG2); type: cell-based
[7] = tested on: necrosis of coronary tissue; settings: mouse MI model, reference 23; cited from earlier work
PAR1 [8] = biological target: T3, PAR1; settings: from reference 24; cited from earlier work
[9] = species not stated in b8; mouse plasma; reference 20; cited from earlier work

T2 sequence (P31645 whole entry, species assumed): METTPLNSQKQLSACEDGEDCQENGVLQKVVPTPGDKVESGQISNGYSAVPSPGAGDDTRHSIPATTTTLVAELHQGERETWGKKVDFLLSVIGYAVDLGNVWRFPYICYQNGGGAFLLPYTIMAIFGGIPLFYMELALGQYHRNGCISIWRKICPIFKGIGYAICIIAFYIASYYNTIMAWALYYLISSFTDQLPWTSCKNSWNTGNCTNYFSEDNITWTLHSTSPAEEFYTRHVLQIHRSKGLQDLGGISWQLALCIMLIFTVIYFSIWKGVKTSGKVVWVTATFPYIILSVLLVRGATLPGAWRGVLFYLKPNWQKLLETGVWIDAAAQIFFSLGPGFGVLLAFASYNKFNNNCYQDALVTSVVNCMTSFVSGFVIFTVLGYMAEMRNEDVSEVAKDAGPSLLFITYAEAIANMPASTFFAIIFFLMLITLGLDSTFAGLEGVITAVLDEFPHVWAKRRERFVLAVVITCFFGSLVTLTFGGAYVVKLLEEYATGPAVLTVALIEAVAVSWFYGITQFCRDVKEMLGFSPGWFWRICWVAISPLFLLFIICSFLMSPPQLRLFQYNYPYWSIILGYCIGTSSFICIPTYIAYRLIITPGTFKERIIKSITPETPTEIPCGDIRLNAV

effect on radioligand binding to PBR [1]: inhibition of binding
stability in the presence of human liver microsomes [2]: no apparent degradation after 1 h
% compound remaining in mouse plasma (mouse plasma stability): 32%
% compound remaining in human plasma (human plasma stability): 97%
effect on SERT in radioligand binding profiling [3]: activation
iCa2+ assay pIC50 (PAR1 [5]): 6.3 ± 0.1
inhibition at 10 µM (PAR1 [5]): 59 ± 13%
solubility [6]: 17 µM (≈ 6.57 µg/mL)
Structure (SMILES): O=C(Nc1cccc(NC(=O)c2ccccc2Br)c1)c1cnco1 [Compound 5, N-[3-(2-bromobenzamido)phenyl]-1,3-oxazole-5-carboxamide]
inhibition of platelet aggregation (human washed platelets): Complete inhibition of platelet aggregation
TF mRNA level after TNF-α [4]: dropping TF RNA levels to below baseline levels
mode of action at PAR1 (PAR1 [5]): selective negative allosteric modulator of PAR1
toxicity in hepG2 (hepG2): no measurable toxicity

iCa2+ assay pIC50 (PAR1 [5]): 6.4 ± 0.1
inhibition at 10 µM (PAR1 [5]): 82 ± 1%
Structure (SMILES): O=C(Nc1cccc(NC(=O)c2ccccc2Br)c1)c1cocn1 [Compound 6, N-[3-(2-bromobenzamido)phenyl]-1,3-oxazole-4-carboxamide]

IC50 (PAR1 [5]): 398 nM
inhibition at 10 µM (PAR1 [5]): 66 ± 13%
Structure (SMILES): O=C(Nc1cccc(NC(=O)c2ccccc2Cl)c1)c1cnco1 [Compound 7, N-[3-(2-chlorobenzamido)phenyl]-1,3-oxazole-5-carboxamide]

IC50 (PAR1 [5]): 93.3 nM
inhibition at 10 µM (PAR1 [5]): 56 ± 6%
Structure (SMILES): O=C(Nc1cccc(NC(=O)c2ccccc2Br)c1)c1cncs1 [Compound 8, N-[3-(2-bromobenzamido)phenyl]-1,3-thiazole-5-carboxamide]

IC50 (PAR1 [5]): 40.7 nM
inhibition at 10 µM (PAR1 [5]): 97 ± 13%
Structure (SMILES): O=C(Nc1cccc(NC(=O)c2ccccc2Br)c1)c1ccoc1 [Compound 9, N-[3-(2-bromobenzamido)phenyl]furan-3-carboxamide]

The remaining lines, values behind:

Structure (SMILES): O=C(Nc1cccc(NC(=O)C2CCCO2)c1)c1ccccc1Br (centres unmarked) [Compound 10, N-[3-(2-bromobenzamido)phenyl]oxolane-2-carboxamide]
inhibition at 10 µM (PAR1 [5]): 42 ± 3%

Structure (SMILES): O=C(Nc1cccc(NC(=O)C2CCOC2)c1)c1ccccc1Br (centres unmarked) [Compound 11, N-[3-(2-bromobenzamido)phenyl]oxolane-3-carboxamide]
inhibition at 10 µM (PAR1 [5]): 44 ± 2%

Structure (SMILES): CCCC(=O)Nc1cccc(NC(=O)c2ccccc2Br)c1 [ML161, reference compound]
effect on radioligand binding to PBR [1]: inhibition of binding
stability in the presence of human liver microsomes [2]: excellent stability
inhibition of platelet aggregation (human washed platelets): Complete inhibition of platelet aggregation
% compound remaining in mouse plasma (mouse plasma stability): less than 1%
minimizing necrosis of coronary tissue [7]: highly effective at minimizing necrosis of coronary tissue
mode of action at PAR1 signaling via Gq (PAR1 [8]): selective, reversible, and allosteric inhibitors (negative allosteric modulators)
% compound remaining in human plasma (human plasma stability): 79%
effect on SERT in radioligand binding profiling [3]: activation
TF mRNA level after TNF-α [4]: blocked the ˜3-fold increase in TF expression
stability in plasma [9]: low stability in plasma
